Data: US7622472B2, “Combination of Src kinase inhibitors and chemotherapeutic agents for the treatment of proliferative diseases” (priority 2003, dated 2009)

What was measured:
[1] = system: PC3 human prostate carcinoma xenografts; test: In vivo antitumor testing, PC3 human prostate carcinoma xenografts in nude mice; details: single agent compound 1, 10 mpk, orally, twice-a-day, 5-day-on, 2-day-off, 14 days
Source text: Tumors were propagated as subcutaneous transplants using tumor fragments obtained from donor mice.
For treatment of early-stage tumors, the animals were again pooled before distribution to the various treatment and control groups. For treatment of animals with advanced-stage disease, tumors were allowed to grow to the pre-determined size window (tumors outside the range were excluded) and animals were evenly distributed to various treatment and control groups. Treatment of each animal was based on individual body weight. Treated animals were checked daily for treatment related toxicity/mortality. Each group of animals was weighed before the initiation of treatment (Wt1) and then again following the last treatment dose (Wt2). The difference in body weight (Wt2−Wt1) provides a measure of treatment-related toxicity. Tumor response was determined by measurement of tumors with a caliper twice a week, until the tumors reach a predetermined “target” size of 1 gm. Tumor weights (mg) were estimated from the formula: Tumor weight=(length×width2)÷2 Antitumor activity was evaluated at the maximum tolerated dose (MTD) which is defined as the dose level immediately below which excessive toxicity (i.e. more than one death) occurred. […] When death occurs, the day of death was recorded.

[2] = system: Src family kinases (SFKs, including: Fyn, Yes, Yrk, Blk, Fgr, Hck, Lyn, and Frk subfamily members Frk/Rak and Iyk/Bsk); test: Inhibition of Src family kinases (statement, no method); type: biochemical; details: competes with ATP for the ATP-binding site in the kinase domain

## Cc1nc(Nc2ncc(C(=O)Nc3c(C)cccc3Cl)s2)cc(N2CCN(CCO)CC2)n1 [Compound 1, ′N-(2-Chloro-6-methylphenyl)-2-[[6-[4-(2-hydroxyethyl)-1-piperazinyl]-2-methyl-4-pyrimidinyl]amino]-5-thiazolecarboxamide]
[1]
  growth delay (T-C): 4.5 days
  tumor growth inhibition (% T/C): 58%
[2]
  inhibition of Src family kinases: potently inhibits
